Test results published in PubChem BioAssay AID1787 (Sanford-Burnham Center for Chemical Genomics, 2009).
Activity calls are given as the source filed them. How the calls were made is not given here.

Test system: MDA-MB-435 cytotoxicity with TRAIL, ATPlite luminescence, 24 h
Experiment: PubChem AID 1787

**Q.** What does the source list for `CSc1nc(-c2ccc(C)cc2)nc(C(Cl)Cl)n1`?
**A.** cytotoxicity (TRAIL alone cytotoxicity, dose or concentration not given here): 42%; cytotoxicity with TRAIL (at 30 µM (top of the series)): 92 (inactive); cytotoxicity (compound alone cytotoxicity series, at 30 µM, stronger effect = higher value): 8%
